Measured values from US9278922B2 (ABBVIE INC., priority 2009, dated 2016).

System: HCV 1b-Con-1 replicon
Experiment: HCV 1b-Con-1 replicon assay (luciferase reporter gene, HuH-7 cells)
Assay type: cell-based, Hepatitis C virus (HCV) genotype 1b-Con1
Conditions: Hepatitis C virus, Huh-7, luciferase reporter gene activity in the replicon, in the presence of 5% FBS

Structure (SMILES) | EC50 [nM]
COC(=O)N[C@@H](CCc1ccccc1)C(=O)N1CCC[C@H]1C(=O)Nc1ccc(CN(Cc2ccc(NC(=O)[C@@H]3CCCN3C(=O)[C@H](CCc3ccccc3)NC(=O)OC)cc2)c2ccccc2)cc1 [Example 91, dimethyl[(phenylimino)bis{methanediylbenzene-4,1-diylcarbamoyl(2S)pyrrolidine-2,1-diyl[(2S)-1-oxo-4-phenylbutane-1,2-diyl]}]biscarbamate] | 1 to 10
O=C(Nc1ccc(CN(Cc2ccc(NC(=O)[C@@H]3CCCN3C(=O)[C@@H](c3ccccc3)N3CCCCC3)cc2)c2ccc(F)cc2)cc1)[C@@H]1CCCN1C(=O)[C@@H](c1ccccc1)N1CCCCC1 [Example 92, (2S,2′S)-N,N′-{[(4-fluorophenyl)imino]bis(methanediylbenzene-4,1-diyl)}bis{1-[(2R)-2-phenyl-2-piperidin-1-ylacetyl]pyrrolidine-2-carboxamide}] | < 1
COC(=O)N[C@H](C(=O)N1CSC(C)(C)[C@H]1C(=O)Nc1ccc(CN(Cc2ccc(NC(=O)[C@H]3N(C(=O)[C@@H](NC(=O)OC)C(C)(C)C)CSC3(C)C)cc2)c2ccccc2)cc1)C(C)(C)C [Example 93, methyl [(1S)-1-{[(4R)-4-{[4-({[4-({[(4R)-3-{(2S)-2-[(methoxycarbonyl)amino]-3,3-dimethylbutanoyl}-5,5-dimethyl-1,3-thiazolidin-4-yl]carbonyl}amino)benzyl](phenyl)amino}methyl)phenyl]carbamoyl}-5,5-dimethyl-1,3-thiazolidin-3-yl]carbonyl}-2,2-dimethylpropyl]carbamate] | 1 to 10
COC(=O)N[C@H](C(=O)N1C[C@@H](F)C[C@H]1C(=O)Nc1ccc(CN(Cc2ccc(NC(=O)[C@@H]3C[C@H](F)CN3C(=O)[C@@H](NC(=O)OC)C(C)(C)C)cc2)c2ccccc2)cc1)C(C)(C)C [Example 94] | 1 to 10
CCN(CC)[C@@H](C(=O)N1CCC[C@H]1c1nc2cc(CN(Cc3ccc4[nH]c([C@@H]5CCCN5C(=O)[C@@H](c5ccccc5)N(CC)CC)nc4c3)c3ccc(F)cc3)ccc2[nH]1)c1ccccc1 [Example 95, N,N-bis[(2-{(2S)-1-[(2R)-2-(diethylamino)-2-phenylacetyl]pyrrolidin-2-yl}-1H-benzimidazol-5-yl)methyl]-4-fluoroaniline] | < 1
COC(=O)N[C@H](C(=O)N1CCC[C@H]1c1nc2cc(CN(Cc3ccc4[nH]c([C@@H]5CCCN5C(=O)[C@@H](NC(=O)OC)C(C)C)nc4c3)c3ccc(F)cc3)ccc2[nH]1)C(C)C [Example 96, methyl [(1S)-1-{[(2S)-2-(5-{[(4-fluorophenyl)({2-[(2S)-1-{(2S)-2-[(methoxycarbonyl)amino]-3-methylbutanoyl}pyrrolidin-2-yl]-1H-benzimidazol-5-yl}methyl)amino]methyl}-1H-benzimidazol-2-yl)pyrrolidin-1-yl]carbonyl}-2-methylpropyl]carbamate] | < 1
COC(=O)N[C@H](C(=O)N1CCC[C@H]1C(=O)Nc1ccc(CN(Cc2ccc(NC(=O)[C@@H]3CCCN3C(=O)[C@@H](NC(=O)OC)[C@@H](C)O)cc2)[C@@H]2CCOC2)cc1)[C@@H](C)O [Example 97, dimethyl ([(3R)-tetrahydrofuran-3-ylimino]bis{methanediylbenzene-4,1-diylcarbamoyl(2S)pyrrolidine-2,1-diyl[(2S,3R)-3-hydroxy-1-oxobutane-1,2-diyl]})biscarbamate] | 100 to 250
COC(=O)N[C@H](C(=O)N1CCC[C@H]1C(=O)Nc1ccc(CN(Cc2ccc(NC(=O)[C@@H]3CCCN3C(=O)[C@@H](NC(=O)OC)C(C)(C)O)cc2)c2ccc(F)cc2)cc1)C(C)(C)O [Example 98, dimethyl ([(4-fluorophenyl)imino]bis{methanediylbenzene-4,1-diylcarbamoyl(25)pyrrolidine-2,1-diyl[(2S)-3-hydroxy-3-methyl-1-oxobutane-1,2-diyl]})biscarbamate] | < 1
